Test results published in doi:10.1101/2025.05.22.655619v4 (bioRxiv, 2025).
Residues, ends and D or L forms follow the SMILES beside them.

Experiments:
defibrinated sheep blood = assay: Hemolysis assay; assay type: cell-based; conditions: for Hemo/MIC = (< 20% Hemo) / MIC Ec: MICs >50 µM treated as 100 µM, >200 µM treated as 200 µM
E. coli (ATCC 25922) = assay: Antimicrobial susceptibility testing; assay type: cell-based, Escherichia coli; conditions: summary values

| Compound | Fold Δ = (Hemo/MIC of compound) / (Hemo/MIC of LL-37) (defibrinated sheep blood; Figure 6C) | Hemo/MIC = (< 20% Hemo) / MIC Ec (defibrinated sheep blood; Figure 6C) | Fold Δ = (Hemo/MIC of compound) / (Hemo/MIC of LL-37) (defibrinated sheep blood; Figure 1B) | MIC against E. coli as stated in the text and in the table of contents graphic (E. coli (ATCC 25922)) [µM] | other results |
| --- | --- | --- | --- | --- | --- |
| CC[C@H](C)[C@H](NC(=O)[C@H](CCCCN)NC(=O)[C@H](CCC(=O)O)NC(=O)[C@H](CCCCN)NC(=O)[C@H](CO)NC(=O)[C@H](CCCCN)NC(=O)[C@H](CCCNC(=N)N)NC(=O)[C@H](Cc1ccccc1)NC(=O)[C@H](Cc1ccccc1)NC(=O)[C@H](CC(=O)O)NC(=O)CNC(=O)[C@H](CC(C)C)NC(=O)[C@@H](N)CC(C)C)C(=O)NCC(=O)N[C@@H](CCCCN)C(=O)N[C@@H](Cc1ccccc1)C(=O)N[C@@H](Cc1ccccc1)C(=O)N[C@@H](CCCCN)C(=O)N[C@@H](CCCNC(=N)N)C(=O)N[C@H](C(=O)N[C@H](C(=O)N[C@@H](CCC(N)=O)C(=O)N[C@@H](CCCNC(=N)N)C(=O)N[C@H](C(=O)N[C@@H](CCCCN)C(=O)O)[C@@H](C)CC)C(C)C)[C@@H](C)CC [(#49) LL-25 (FF)] (H-LLGDFFRKSKEKIGKFFKRIVQRIK-OH; N-terminus assumed) | 4 | 4 |  |  |  |
| CC[C@H](C)[C@H](NC(=O)[C@H](CCCCN)NC(=O)[C@H](CCC(=O)O)NC(=O)[C@H](CCCCN)NC(=O)[C@H](CO)NC(=O)[C@H](CCCCN)NC(=O)[C@H](CCCNC(=N)N)NC(=O)[C@H](Cc1ccccc1)NC(=O)[C@H](Cc1ccccc1)NC(=O)[C@H](CC(=O)O)NC(=O)CN)C(=O)NCC(=O)N[C@@H](CCCCN)C(=O)N[C@@H](CCC(=O)O)C(=O)N[C@@H](Cc1ccccc1)C(=O)N[C@@H](CCCCN)C(=O)N[C@@H](CCCNC(=N)N)C(=O)N[C@H](C(=O)N[C@H](C(=O)N[C@@H](CCC(N)=O)C(=O)N[C@@H](CCCNC(=N)N)C(=O)N[C@H](C(=O)N[C@@H](CCCCN)C(=O)O)[C@@H](C)CC)C(C)C)[C@@H](C)CC [(#4) GD-23] (H-GDFFRKSKEKIGKEFKRIVQRIK-OH; N-terminus and C-terminus assumed) | 32 | 32 | 64 |  |  |
| CC[C@H](C)[C@H](NC(=O)[C@H](CCCCN)NC(=O)[C@H](CCC(=O)O)NC(=O)[C@H](CCCCN)NC(=O)[C@H](CO)NC(=O)[C@H](CCCCN)NC(=O)[C@H](CCCNC(=N)N)NC(=O)[C@H](Cc1ccccc1)NC(=O)[C@H](Cc1ccccc1)NC(=O)[C@H](CC(=O)O)NC(=O)CN)C(=O)NCC(=O)N[C@@H](CCCCN)C(=O)N[C@@H](Cc1ccccc1)C(=O)N[C@@H](Cc1ccccc1)C(=O)N[C@@H](CCCCN)C(=O)N[C@@H](CCCNC(=N)N)C(=O)N[C@H](C(=O)N[C@H](C(=O)N[C@@H](CCC(N)=O)C(=O)N[C@@H](CCCNC(=N)N)C(=O)N[C@H](C(=O)N[C@@H](CCCCN)C(=O)O)[C@@H](C)CC)C(C)C)[C@@H](C)CC [(#53) GD-23 (FF)] (H-GDFFRKSKEKIGKFFKRIVQRIK-OH; N-terminus and C-terminus assumed) | 16 | 16 |  |  |  |
| CC[C@H](C)[C@H](NC(=O)[C@H](CCCNC(=N)N)NC(=O)[C@H](CCC(N)=O)NC(=O)[C@@H](NC(=O)[C@@H](NC(=O)[C@H](CCCNC(=N)N)NC(=O)[C@@H](N)CCCCN)[C@@H](C)CC)C(C)C)C(=O)N[C@@H](CCCCN)C(=O)N[C@@H](CC(=O)O)C(=O)N[C@@H](Cc1ccccc1)C(=O)N[C@@H](CC(C)C)C(=O)N[C@@H](CCCNC(=N)N)C(=O)O [(#10) KR-12] (H-KRIVQRIKDFLR-OH) |  |  |  | > 50 |  |
| CC[C@H](C)[C@H](NC(=O)[C@H](CCCNC(=N)N)NC(=O)[C@H](CCC(N)=O)NC(=O)[C@@H](NC(=O)[C@@H](NC(=O)[C@H](CCCNC(=N)N)NC(=O)[C@H](CCCCN)NC(=O)[C@H](Cc1ccccc1)NC(=O)[C@@H](N)Cc1ccccc1)[C@@H](C)CC)C(C)C)C(=O)N[C@@H](CCCCN)C(=O)N[C@@H](CC(=O)O)C(=O)N[C@@H](Cc1ccccc1)C(=O)N[C@@H](CC(C)C)C(=O)N[C@@H](CCCNC(=N)N)C(=O)O [(#18) FF-14] (H-FFKRIVQRIKDFLR-OH) |  |  |  | 3.1 |  |
| Colistin [reference compound] |  |  | 512 |  | Fold Δ = (Hemo/MIC of compound) / (Hemo/MIC of LL-37) (defibrinated sheep blood; Figure 2B): 256; Hemo/MIC = (< 20% Hemo) / MIC Ec (defibrinated sheep blood; Figure 2B): 64; Hemo/MIC = (< 20% Hemo) / MIC Ec (defibrinated sheep blood; Figure 4B): 128 |
